Results from US5503988A, “Process for producing a cholesterol-reduced substance” (priority 1992, dated 1996).
Read-outs that look alike come from different tables or passages of the source.

Legend:
[1] = test system: cholesterol oxidase from Botrytis cinerea CO-33; format: biochemical
Protocol: To 0.1 ml of 1 mM cholesterol micelle solution containing 0,33% Triton X-100 is added 0.3 ml of 20 mM phosphate/citrate buffer (pH 6.0), 0.05 ml of the enzyme solution is added to the mixture, and the reaction is carried out at 37° C. for 10 minutes. 0.05 ml of chloroform is added thereto to extract sterol, stopping the reaction.
Cholestenone in the reaction mixture is determined with a TLC/FID IATROSCAN (product to Diayatron Co.). […] The enzyme activity which produces 1 μmol of cholestenone per minute is defined as 1 unit.

[2] = test system: epicholesterol dehydrogenase from Mycobacterium sp. EPI-40; format: biochemical
Protocol: With 0.1 ml of a 1 mM epicholesterol micelle solution containing 0.33% Triton X-100 are mixed 0.3 ml of 20 mM Tris-HCl buffer (pH 8.0) containing 1 mM dithiothreitol, 0.1 ml of a 10 mM NAD solution, and 0.01 ml of 50 mM magnesium chloride. 0.05 ml of the enzyme solution is added to the mixture, and the mixture is allowed to stand at 37° C. for 2 hours. 0.05 ml of chloroform is added and sterol is extracted to stop the reaction.
Cholestenone produced in the reaction mixture is determined with high performance liquid chromatography. A quantitative determination is made using an ODS column (Inertsil ODS-2 column, 4.6×250 mm, product of GL Science Co.), using methanol as the mobile phase. […] The enzyme activity which produces 1 μmol of cholestenone per minute is defined as 1 unit.

| Compound | residual activity (activity without inhibitor defined as 100%) ([1]; pH 6) | residual activity (activity without inhibitor defined as 100%) ([2]; pH 8) | residual activity (activity without inhibitor defined as 100%) ([1]; 1 mM inhibitor added, reaction for 10 minutes at pH 6.0, 37° C.) | residual activity (activity without inhibitor defined as 100%) ([2]; 1 mM inhibitor added, allowed to stand 2 hours at pH 8.0, 37° C.) |
| --- | --- | --- | --- | --- |
| O=C(O)CN(CCN(CC(=O)O)CC(=O)O)CC(=O)O [ethylenediamine tetraacetate] | 93% | 71% | – | – |
| O=S(=O)(O)c1cc[c]([Hg][Cl])cc1 [p-chloromercury phenylsulfonate] | – | – | 100% | 7% |
| O=C(O)CI [iodoacetic acid] | 89% | 67% | – | – |
